Literature values, collected in publication PMC4654502, “Early Gelatinase Activity Is Not a Determinant of Long-Term Recovery after Traumatic Brain Injury in the Immature Mouse” (PLoS ONE, 2015).

Experiments:
[1] = test system: HI in p7 rat pups; settings: cited from earlier work
[2] = test system: HI injury in rats at p21; parameters: method as in PMID 23171520; settings: i.p. 50 mg/kg at 30 min, 6 h and 12 h after HI; cited from earlier work
[3] = test system: adult models of ischemic stroke; parameters: method as in PMID 22587708; settings: cited from earlier work
[4] = test system: TBI in adult mice; settings: 25 mg/kg; cited from earlier work
[5] = test system: fluid-percussion injury in adult rats; settings: cited from earlier work

Row | SMILES | acute cell death after HI [1] | ipsilateral brain tissue loss after HI [1] | neuroprotection after HI injury [2] | pro-MMP-9 after acute treatment [2] | behavioral and cognitive consequences of ischemic stroke [3] | infarct volumes [3] | functional and neuropathological outcomes after TBI in adult mice [4] | behavioral and cognitive deficits after TBI [5] | hippocampal neurons after TBI [5]
1 | CNC(=O)[C@H](Cc1c[nH]c2ccccc12)NC(=O)[C@@H](CC(=O)NO)CC(C)C [GM6001] | amelioration of acute cell death | preservation of ipsilateral brain tissue loss | – | – | – | – | – | – | –
2 | O=S(=O)(CC1CS1)c1ccc(Oc2ccccc2)cc1 (stereo not drawn) [SB-3CT] | – | – | failed to render significant neuroprotection | a reduction in pro-MMP-9 | ameliorate behavioral and cognitive consequences | reduce infarct volumes | effective at improving functional and neuropathological outcomes | rescued behavioral and cognitive deficits | preserved hippocampal neurons
